Measurements reported in US20070077311A1, “Fumigant/sterilant” (priority 2003, published 2007).

Assays:
[1] = cited from earlier work
rat = conditions: 1 hour inhalation; cited from earlier work
[2] = Flammability limit tests of cyanogen/CO2 mixtures in air; format: physicochemical
Description: The apparatus allows continuous metering and mixing of known proportions of cyanogen, carbon dioxide and air. This permitted a number of ignition tests to be made in a relatively short period.
The apparatus comprises sources of compressed air 1, carbon dioxide 2 and the active chemical cyanogen 3. […] The resultant mixture flows through tube 7 where it is diverted to an oxygen analyser 8 to determine its content, and an ignition tube 9 with ignition source 10 for flammability testing.
Similarly, for the tests involving the addition of carbon dioxide, the proportions of air and CO2 were set using the previously arrived calibration material and at least two minutes were allowed to elapse between adjustment of the CO2/air proportions and ignition tests.
Ignition tests involved switching a high voltage across an approximately 5 mm gap 10 within the flow ignition tube 9. […]
Turning to FIG. 2, it is now possible to determine what proportion of cyanogen in carbon dioxide will remain inert in all proportions with air. Line A shown in FIG. 2 has the maximum slope that can be achieved whilst still remaining wholly below the experimentally determined lower explosive limits and passing through the origin.
For reasons of safety, the Applicant has determined a preferred content of around 20% v/v as this gives an additional margin of safety.

N#CC#N [cyanogen]
Flammability limits in air [1]: 6-32 % v/v
known LEL of cyanogen in air ([1]; literature value): 6%
known UEL of cyanogen in air ([1]; literature value): 32 % v/v
LC50 (rat): 350 ppm
maximum proportion of cyanogen in carbon dioxide which is inert in all proportions with air ([2]; from slope of Line A in FIG. 2, ignition source 2): approximately 26%
maximum of cyanogen in carbon dioxide gas inert in all proportions of air ([2]; subsequent testing): around 26 % v/v
